# Assay results reported in ChEMBL document CHEMBL3632469, “Discovery of dihydroquinazolinone derivatives as potent, selective, and CNS-penetrant M(1) and M(4) muscarinic acetylcholine receptors agonists” (Bioorg Med Chem Lett, 2015).
# What was measured:
# [1] = biological target: Cysteinyl leukotriene receptor 2 (Homo sapiens) (UniProt Q9NS75); test: Agonist activity at CysLT2 receptor (unknown origin) expressed in CHO cells assessed as calcium mobilization at 3 uM; format: functional, cell-based
# [2] = biological target: Kappa-type opioid receptor (Homo sapiens) (UniProt P41145); test: Antagonist activity at opiate kappa receptor (unknown origin) expressed in CHO cells assessed as calcium mobilization at 3 uM; format: functional, cell-based
# [3] = biological target: Adrenergic receptor alpha-1 (Homo sapiens) (UniProt P35348+P25100+P35368); test: Agonist activity at adrenergic a1 receptor (unknown origin) expressed in CHO cells assessed as calcium mobilization at 3 uM; format: functional, cell-based
# [4] = biological target: Histamine H1 receptor (Homo sapiens) (UniProt P35367); test: Agonist activity at histamine H1 receptor (unknown origin) expressed in CHO cells assessed as calcium mobilization at 3 uM; format: functional, cell-based
# [5] = biological target: T1, Muscarinic acetylcholine receptor M4 (Homo sapiens) (UniProt P08173); test: Partial agonist activity at human muscarinic M4 acetylcholine receptor expressed in CHO cells co-expressing Galpha16 assessed as calcium mobilization at 0.3 uM by FLIPR assay; format: functional, cell-based
# T1 sequence (whole entry): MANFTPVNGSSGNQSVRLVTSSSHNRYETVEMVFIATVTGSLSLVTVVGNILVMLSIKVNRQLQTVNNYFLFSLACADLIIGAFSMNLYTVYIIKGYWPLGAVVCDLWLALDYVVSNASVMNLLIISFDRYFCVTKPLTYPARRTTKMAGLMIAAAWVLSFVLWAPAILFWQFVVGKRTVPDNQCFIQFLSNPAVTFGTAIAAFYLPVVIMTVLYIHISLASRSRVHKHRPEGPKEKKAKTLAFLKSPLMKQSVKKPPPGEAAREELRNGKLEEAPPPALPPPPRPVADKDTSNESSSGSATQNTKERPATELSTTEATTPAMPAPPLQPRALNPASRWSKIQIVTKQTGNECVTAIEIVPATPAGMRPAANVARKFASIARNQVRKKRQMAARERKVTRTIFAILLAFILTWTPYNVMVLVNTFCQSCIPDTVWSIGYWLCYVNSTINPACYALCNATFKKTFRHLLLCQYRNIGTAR
# [6] = biological target: Adenosine receptor A1 (Homo sapiens) (UniProt P30542); test: Antagonist activity at adenosine a1 receptor (unknown origin) expressed in CHO cells assessed as calcium mobilization at 3 uM; format: functional, cell-based
# [7] = biological target: Type-1 angiotensin II receptor (Homo sapiens) (UniProt P30556); test: Agonist activity at angiotensin 2 type 1 receptor (unknown origin) expressed in CHO cells assessed as calcium mobilization at 3 uM; format: functional, cell-based
# [8] = biological target: Alpha-2B adrenergic receptor (Homo sapiens) (UniProt P18089); test: Agonist activity at adrenergic a2B receptor (unknown origin) expressed in CHO cells assessed as calcium mobilization at 3 uM; format: functional, cell-based
# [9] = biological target: Mu-type opioid receptor (Homo sapiens) (UniProt P35372); test: Agonist activity at ppiate mu receptor (unknown origin) expressed in CHO cells assessed as calcium mobilization at 3 uM; format: functional, cell-based
# [10] = biological target: 5-hydroxytryptamine receptor 2A (Homo sapiens) (UniProt P28223); test: Agonist activity at 5-HT2a receptor (unknown origin) expressed in CHO cells assessed as calcium mobilization at 3 uM; format: functional, cell-based
# Cytochrome P450 1A2 = Cytochrome P450 1A2 (Homo sapiens, UniProt P05177); test: Inhibition of CYP1A2 (unknown origin); format: ADME
# [11] = biological target: D(3) dopamine receptor (Homo sapiens) (UniProt P35462); test: Agonist activity at dopamine D3L receptor (unknown origin) expressed in CHO cells assessed as calcium mobilization at 3 uM; format: functional, cell-based
# [12] = biological target: Alpha-1B adrenergic receptor (Homo sapiens) (UniProt P35368); test: Agonist activity at adrenergic a1B receptor (unknown origin) expressed in CHO cells assessed as calcium mobilization at 3 uM; format: functional, cell-based
# Cytochrome P450 2C19 = Cytochrome P450 2C19 (Homo sapiens, UniProt P33261); test: Inhibition of CYP2C19 (unknown origin); format: ADME
# [13] = biological target: 5-hydroxytryptamine receptor 7 (Homo sapiens) (UniProt P34969); test: Antagonist activity at 5-HT7B receptor (unknown origin) expressed in CHO cells assessed as calcium mobilization at 3 uM; format: functional, cell-based
# [14] = biological target: Beta-2 adrenergic receptor (Homo sapiens) (UniProt P07550); test: Antagonist activity at adrenergic beta2 receptor (unknown origin) expressed in CHO cells assessed as calcium mobilization at 3 uM; format: functional, cell-based
# [15] = biological target: D(1B) dopamine receptor (Homo sapiens) (UniProt P21918); test: Antagonist activity at dopamine D5 receptor (unknown origin) expressed in CHO cells assessed as calcium mobilization at 3 uM; format: functional, cell-based
# [16] = biological target: Nociceptin receptor (Homo sapiens) (UniProt P41146); test: Antagonist activity at OPRL1 receptor (unknown origin) expressed in CHO cells assessed as calcium mobilization at 3 uM; format: functional, cell-based
# [17] = biological target: 5-hydroxytryptamine receptor 5A (Homo sapiens) (UniProt P47898); test: Agonist activity at 5-HT5a receptor (unknown origin) expressed in CHO cells assessed as calcium mobilization at 3 uM; format: functional, cell-based
# CHO = test: Agonist activity at GaBaB receptor (unknown origin) expressed in CHO cells assessed as calcium mobilization at 3 uM; format: cell-based; details: Homo sapiens
# [18] = biological target: 5-hydroxytryptamine receptor 2B (Homo sapiens) (UniProt P41595); test: Antagonist activity at 5-HT2B receptor (unknown origin) expressed in CHO cells assessed as calcium mobilization at 3 uM; format: functional, cell-based
# [19] = biological target: Histamine H3 receptor (Homo sapiens) (UniProt Q9Y5N1); test: Antagonist activity at histamine H3 receptor (unknown origin) expressed in CHO cells assessed as calcium mobilization at 3 uM; format: functional, cell-based
# [20] = biological target: T1, Muscarinic acetylcholine receptor M4 (Homo sapiens); test: Partial agonist activity at human muscarinic M4 acetylcholine receptor expressed in CHO cells co-expressing Galpha16 assessed as calcium mobilization by FLIPR assay relative to control; format: functional, cell-based
# [21] = biological target: D(1A) dopamine receptor (Homo sapiens) (UniProt P21728); test: Agonist activity at dopamine D1 receptor (unknown origin) expressed in CHO cells assessed as calcium mobilization at 3 uM; format: functional, cell-based
# [22] = biological target: Muscarinic acetylcholine receptor M3 (Homo sapiens) (UniProt P20309); test: Agonist activity at human muscarinic M3 acetylcholine receptor expressed in CHO cells assessed as calcium mobilization at 30 uM by FLIPR assay; format: functional, cell-based
# [23] = biological target: D(2) dopamine receptor (Homo sapiens) (UniProt P14416); test: Binding affinity to dopamine D2 receptor (unknown origin) at 3 uM by radioligand-binding assay
# [24] = biological target: 5-hydroxytryptamine receptor 1F (Homo sapiens) (UniProt P30939); test: Agonist activity at 5-HT1F receptor (unknown origin) expressed in CHO cells assessed as calcium mobilization at 3 uM; format: functional, cell-based
# [25] = biological target: 5-hydroxytryptamine receptor 1B (Homo sapiens) (UniProt P28222); test: Agonist activity at 5-HT1B receptor (unknown origin) expressed in CHO cells assessed as calcium mobilization at 3 uM; format: functional, cell-based
# [26] = biological target: Somatostatin receptor type 2 (Homo sapiens) (UniProt P30874); test: Agonist activity at SSTR2 receptor (unknown origin) expressed in CHO cells assessed as calcium mobilization at 3 uM; format: functional, cell-based
# P-glycoprotein = test: Binding affinity to p-glycoprotein (unknown origin) assessed as efflux ratio by cell based assay; format: ADME; details: human, not told
# Sequence of D(3) dopamine receptor (Homo sapiens) (P35462 whole entry): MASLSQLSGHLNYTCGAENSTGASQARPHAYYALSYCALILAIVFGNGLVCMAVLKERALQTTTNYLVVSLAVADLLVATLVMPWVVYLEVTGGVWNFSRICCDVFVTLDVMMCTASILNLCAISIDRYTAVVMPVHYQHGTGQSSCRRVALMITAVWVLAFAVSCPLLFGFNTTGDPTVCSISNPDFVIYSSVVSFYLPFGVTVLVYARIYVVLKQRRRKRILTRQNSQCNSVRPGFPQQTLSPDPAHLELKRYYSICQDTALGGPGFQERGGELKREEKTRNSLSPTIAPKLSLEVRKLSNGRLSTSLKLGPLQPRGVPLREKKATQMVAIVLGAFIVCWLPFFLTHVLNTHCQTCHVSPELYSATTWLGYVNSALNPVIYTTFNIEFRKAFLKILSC
# Sequence of Cytochrome P450 2C19 (P33261 whole entry): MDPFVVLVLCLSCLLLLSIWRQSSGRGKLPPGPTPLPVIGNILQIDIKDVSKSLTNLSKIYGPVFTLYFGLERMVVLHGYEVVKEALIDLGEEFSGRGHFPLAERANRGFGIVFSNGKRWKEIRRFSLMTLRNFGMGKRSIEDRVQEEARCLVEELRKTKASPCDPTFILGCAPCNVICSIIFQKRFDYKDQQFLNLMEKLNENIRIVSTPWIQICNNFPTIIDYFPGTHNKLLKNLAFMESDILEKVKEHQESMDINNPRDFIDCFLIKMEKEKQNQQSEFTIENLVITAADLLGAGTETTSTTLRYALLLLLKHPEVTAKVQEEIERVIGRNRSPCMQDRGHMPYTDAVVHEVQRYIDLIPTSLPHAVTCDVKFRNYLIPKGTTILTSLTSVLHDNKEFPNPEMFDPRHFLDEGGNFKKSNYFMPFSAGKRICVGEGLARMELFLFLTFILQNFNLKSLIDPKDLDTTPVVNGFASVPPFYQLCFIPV
# Sequence of Mu-type opioid receptor (Homo sapiens) (P35372 whole entry): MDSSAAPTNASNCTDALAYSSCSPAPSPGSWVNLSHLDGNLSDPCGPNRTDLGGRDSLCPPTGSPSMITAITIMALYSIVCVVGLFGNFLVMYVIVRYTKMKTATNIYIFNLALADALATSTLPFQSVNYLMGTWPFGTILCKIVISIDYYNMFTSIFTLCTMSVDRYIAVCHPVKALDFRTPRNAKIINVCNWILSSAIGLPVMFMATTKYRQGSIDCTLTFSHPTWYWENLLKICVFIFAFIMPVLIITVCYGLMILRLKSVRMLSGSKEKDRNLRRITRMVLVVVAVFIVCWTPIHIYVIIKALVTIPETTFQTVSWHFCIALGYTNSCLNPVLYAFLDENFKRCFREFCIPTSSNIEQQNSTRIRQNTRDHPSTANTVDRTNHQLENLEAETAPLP
# Sequence of 5-hydroxytryptamine receptor 5A (Homo sapiens) (P47898 whole entry): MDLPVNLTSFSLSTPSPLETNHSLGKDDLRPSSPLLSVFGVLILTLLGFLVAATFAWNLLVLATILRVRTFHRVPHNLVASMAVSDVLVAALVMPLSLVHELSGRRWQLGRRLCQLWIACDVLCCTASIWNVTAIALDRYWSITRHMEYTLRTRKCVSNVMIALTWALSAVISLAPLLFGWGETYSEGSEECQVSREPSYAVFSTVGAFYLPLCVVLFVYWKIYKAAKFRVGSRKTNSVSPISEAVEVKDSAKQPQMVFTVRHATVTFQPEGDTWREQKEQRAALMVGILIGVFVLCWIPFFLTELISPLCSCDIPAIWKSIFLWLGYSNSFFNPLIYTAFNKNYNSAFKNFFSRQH
# Sequence of Beta-2 adrenergic receptor (Homo sapiens) (P07550 whole entry, looked up): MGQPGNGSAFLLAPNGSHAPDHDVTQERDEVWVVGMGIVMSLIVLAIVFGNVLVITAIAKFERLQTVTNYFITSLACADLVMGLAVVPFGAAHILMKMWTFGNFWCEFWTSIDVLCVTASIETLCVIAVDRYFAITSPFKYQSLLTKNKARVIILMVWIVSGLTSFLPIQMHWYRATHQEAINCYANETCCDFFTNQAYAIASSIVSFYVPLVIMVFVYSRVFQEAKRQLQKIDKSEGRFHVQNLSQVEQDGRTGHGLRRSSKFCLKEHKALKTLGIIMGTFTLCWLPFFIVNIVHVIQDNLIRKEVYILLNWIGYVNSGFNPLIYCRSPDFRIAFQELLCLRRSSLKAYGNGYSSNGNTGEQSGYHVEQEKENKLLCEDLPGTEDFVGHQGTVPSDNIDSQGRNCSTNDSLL
# Sequence of 5-hydroxytryptamine receptor 7 (Homo sapiens) (P34969 whole entry): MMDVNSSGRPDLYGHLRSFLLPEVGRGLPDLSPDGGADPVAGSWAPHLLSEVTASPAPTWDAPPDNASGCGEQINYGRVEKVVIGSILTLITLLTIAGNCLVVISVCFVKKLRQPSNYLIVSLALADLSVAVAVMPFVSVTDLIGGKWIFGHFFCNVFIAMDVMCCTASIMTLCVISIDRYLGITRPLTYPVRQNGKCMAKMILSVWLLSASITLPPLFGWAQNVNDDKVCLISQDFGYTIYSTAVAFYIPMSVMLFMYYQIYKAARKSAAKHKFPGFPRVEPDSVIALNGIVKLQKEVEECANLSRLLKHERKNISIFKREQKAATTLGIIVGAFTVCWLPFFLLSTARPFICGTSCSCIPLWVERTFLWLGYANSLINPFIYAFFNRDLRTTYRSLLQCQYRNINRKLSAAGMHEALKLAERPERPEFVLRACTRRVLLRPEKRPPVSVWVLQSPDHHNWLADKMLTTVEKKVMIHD
# Sequence of D(1A) dopamine receptor (Homo sapiens) (P21728 whole entry): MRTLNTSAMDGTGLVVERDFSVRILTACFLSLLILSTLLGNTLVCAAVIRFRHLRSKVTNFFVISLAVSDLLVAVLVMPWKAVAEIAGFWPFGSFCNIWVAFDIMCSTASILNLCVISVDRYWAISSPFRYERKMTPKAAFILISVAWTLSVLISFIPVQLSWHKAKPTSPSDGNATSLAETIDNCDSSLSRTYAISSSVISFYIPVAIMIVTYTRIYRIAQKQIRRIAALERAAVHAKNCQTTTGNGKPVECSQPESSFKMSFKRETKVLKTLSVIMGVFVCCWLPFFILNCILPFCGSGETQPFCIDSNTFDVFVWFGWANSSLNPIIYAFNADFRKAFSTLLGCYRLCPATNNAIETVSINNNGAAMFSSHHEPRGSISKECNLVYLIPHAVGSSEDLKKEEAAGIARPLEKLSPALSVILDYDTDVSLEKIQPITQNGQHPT
# Sequence of 5-hydroxytryptamine receptor 1F (Homo sapiens) (P30939 whole entry): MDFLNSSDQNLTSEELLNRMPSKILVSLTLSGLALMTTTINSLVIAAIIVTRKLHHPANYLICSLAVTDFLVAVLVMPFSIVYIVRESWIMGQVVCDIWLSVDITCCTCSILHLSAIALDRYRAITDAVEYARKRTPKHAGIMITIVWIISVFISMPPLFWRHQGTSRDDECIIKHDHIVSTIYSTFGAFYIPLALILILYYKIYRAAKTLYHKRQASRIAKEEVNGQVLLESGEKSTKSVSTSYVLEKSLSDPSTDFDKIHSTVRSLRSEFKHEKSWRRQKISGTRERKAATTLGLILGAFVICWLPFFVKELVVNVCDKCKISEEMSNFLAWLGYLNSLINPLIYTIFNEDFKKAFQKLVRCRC
# Sequence of Histamine H3 receptor (Homo sapiens) (Q9Y5N1 whole entry): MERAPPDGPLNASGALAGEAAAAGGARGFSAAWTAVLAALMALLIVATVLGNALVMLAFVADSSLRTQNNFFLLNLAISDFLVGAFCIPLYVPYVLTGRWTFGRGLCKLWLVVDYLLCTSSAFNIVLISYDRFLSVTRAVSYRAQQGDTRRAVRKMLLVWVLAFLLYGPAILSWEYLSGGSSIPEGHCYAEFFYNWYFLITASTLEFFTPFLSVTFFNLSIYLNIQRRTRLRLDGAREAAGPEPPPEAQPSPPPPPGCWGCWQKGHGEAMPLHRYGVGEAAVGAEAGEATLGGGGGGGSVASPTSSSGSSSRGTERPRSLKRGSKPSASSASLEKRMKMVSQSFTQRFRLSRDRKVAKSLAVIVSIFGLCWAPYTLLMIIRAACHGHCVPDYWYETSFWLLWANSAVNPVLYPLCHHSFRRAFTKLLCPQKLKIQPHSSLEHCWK
# Sequence of Type-1 angiotensin II receptor (Homo sapiens) (P30556 whole entry): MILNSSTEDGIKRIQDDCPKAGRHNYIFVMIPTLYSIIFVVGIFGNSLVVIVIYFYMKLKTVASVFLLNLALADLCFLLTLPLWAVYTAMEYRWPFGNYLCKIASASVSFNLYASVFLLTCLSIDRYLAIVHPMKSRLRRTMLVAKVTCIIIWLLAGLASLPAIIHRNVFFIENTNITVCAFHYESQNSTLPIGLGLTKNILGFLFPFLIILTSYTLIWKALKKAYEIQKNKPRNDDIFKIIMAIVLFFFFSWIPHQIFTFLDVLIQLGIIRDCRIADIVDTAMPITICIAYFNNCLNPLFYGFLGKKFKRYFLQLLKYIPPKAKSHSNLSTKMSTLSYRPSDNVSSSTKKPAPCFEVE
# Sequence of Histamine H1 receptor (Homo sapiens) (P35367 whole entry): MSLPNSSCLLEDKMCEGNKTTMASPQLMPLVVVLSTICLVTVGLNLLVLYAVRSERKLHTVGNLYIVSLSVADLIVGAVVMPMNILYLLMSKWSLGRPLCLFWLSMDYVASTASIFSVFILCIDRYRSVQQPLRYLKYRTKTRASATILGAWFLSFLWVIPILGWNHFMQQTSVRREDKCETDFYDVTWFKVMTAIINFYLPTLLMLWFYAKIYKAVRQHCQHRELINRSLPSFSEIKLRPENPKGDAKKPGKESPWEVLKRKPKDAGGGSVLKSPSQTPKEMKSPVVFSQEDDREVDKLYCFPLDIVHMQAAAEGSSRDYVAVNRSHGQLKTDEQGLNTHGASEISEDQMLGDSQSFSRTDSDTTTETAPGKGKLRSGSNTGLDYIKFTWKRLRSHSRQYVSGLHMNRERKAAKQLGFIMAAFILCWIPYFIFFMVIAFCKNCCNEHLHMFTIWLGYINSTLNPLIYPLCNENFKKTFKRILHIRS
compound,measurement,setting,value
CCOC(=O)N1[C@@H]2CC[C@H]1C[C@H](CN1CC[C@@H](N3Cc4ccccc4NC3=O)C1)C2,Activity,[1],0.03%
same,inhibition,[2],1.33%
same,Activity,[3],-0.04%
same,Activity,[4],0.17%
same,Activity,[5],49%
same,inhibition,[6],-3.67%
same,Activity,[7],-0.18%
same,Activity,[8],-0.18%
same,Activity,[9],1%
same,Activity,[10],0.07%
same,IC50,Cytochrome P450 1A2,> 2 µM
same,Activity,[11],-2.42%
same,Activity,[12],0.82%
same,IC50,Cytochrome P450 2C19,> 2 µM
same,inhibition,[13],15.4%
same,inhibition,[14],0.18%
same,inhibition,[15],-3.44%
same,inhibition,[16],-4.61%
same,Activity,[17],-1.06%
same,Activity,CHO,0.7%
same,inhibition,[18],6.13%
same,inhibition,[19],13.7%
same,Activity,[20],51%
same,Activity,[21],0.49%
same,Activity,[22],2%
same,inhibition,[23],13%
same,Activity,[24],-0.53%
same,Activity,[25],-1.26%
same,Activity,[26],0.39%
same,efflux ratio,P-glycoprotein,1
